Tests used:
v-abl kinase [1] = test: Myelin Basic Protein phosphorylation assay; type: biochemical; details: myelin basic protein 56 μM as substrate, 10 μM cold ATP, pH 8.0, 22° C.
Description: (§1) The tyrosine specific protein kinase activity of these compounds is shown by the in vitro tests described herebelow.
(§2) The enzyme used in the Abelson tyrosine kinase p95^v-ab which was produced and isolated as follows: 1 Liter cultures of HB-130 cells in LB medium, supplemented with ampicillin, were grown at 30° C. as described by Wang et al. in J. Biol. Chem. 260, 64 (1985). The expression of v-abl protein was induced by shifting the temperature to 42° C. for 3-4 h. The bacterial cells were collected on ice, centrifuged and frozen in liquid nitrogen. The cell pellet was lysed as described by Ferguson et al. in J. Biol. Chem. 260, 3652 (1985) and in Biochem. J. 257, 321 (1989). Briefly, bacterial proteins were removed by differential solubilization with sodium deoxycholate, NaCl and β-octylglucopyranoside in different steps. Insoluble v-abl protein was solubilized with 2M KSCN and dialyzed against 100 volumes of 50 mM Tris-HCl, pH 7.5, 1 mM EDTA and 0.1 mM dithiothreitol (buffer A). The soluble proteins were separated by chromatography on a prepacked Mono-Q anion exchange column in a f.p.l.c. system. […]
The in vitro test with Myelin Basic Protein as substrate was carried out as follows: Protein phosphorylation was performed by incubating 40 ng of purified v-abl kinase, 1.5 μCi […] Bands were located by autoradiography, excised from gel and counted in a liquid scintillation counter.

v-abl kinase [2] = test: Autophosphorylation assay (v-abl kinase); type: biochemical; details: immunoprecipitated v-abl kinase, 10 μM ATP, 15 min, room temperature
Description: as §1
as §2, with “A).” for “A). The soluble proteins were separated by chromatography on a prepacked Mono-Q anion exchange column in a f.p.l.c. system.”
For the autophosphorylation assay the v-abl kinase was immunoprecipitated with antiphosphotyrosine antibodies and the resulting immunocomplex analyzed in 50 μl of kinase buffer in the presence of 10 μM ATP and 10 μCi […]. […] Bands were located by autoradiography, excised and counted as above. […]

## O=C1Nc2ccc(O)cc2C1=Cc1c[nH]c2ccccc12 [5-Hydroxy-3-[(3'-indolyl)methylene]-2-oxindole]
v-abl kinase [1]
  IC50: 400 nM
v-abl kinase [2]
  IC50: 400 nM

## O=C1Nc2ccccc2C1=Cc1c[nH]c2ccccc12 [3-[(3'-indolyl)methylen]-2-oxindole]
v-abl kinase [1]
  IC50: 600 nM
v-abl kinase [2]
  IC50: 10000 nM

From patent US5409949A, “Methylen-oxindole derivatives compositions and tyrosine kinase inhibition therewith” (Farmitalia Carlo Erba S.r.l., priority 1991, dated 1995)
